target: T1, Wee1 kinase domain (Homo sapiens, UniProt P30291); assay: Wee1 Kinase Biochemical Assay (ADP-Glo); settings: Wee1 kinase domain, 15 uM ATP, ADP-Glo
T1 construct: Wee1 kinase domain was purchased from Carna (catalog #05-177); purchased Carna 05-177
Experimental: Wee1 Kinase Biochemical Assay Protocol
Wee1 kinase domain was purchased from Carna (catalog #05-177). Wee1 kinase activity was determined with Poly(Lys,Tyr 4:1) hydrobromide as a substrate (Sigma-Aldrich) and by measuring ADP production using the ADP-Glo Kinase Assay kit (Promega) following the manufacturer's instructions. The kinase reaction was performed using the following conditions:
Buffer: 40 mM Tris-HCl, 20 mM magnesium chloride, supplemented with 0.1 mg/mL bovine serum albumin and 2 mM DTT. The final reaction mix contained 1 nM Wee1 enzyme, 15 uM ATP, and 2 ng/mL Poly(Lys,Tyr 4:1) hydrobromide substrate. The reaction time was 4 hours at 25° C.
The ADP-Glo signal was measured using the Envision plate reader and the percentage inhibition of kinase activity calculated for each inhibitor tested. Percent inhibition of Wee1 kinase activity was calculated based on the following formula.
[formula] • SSample: the signal of compounds • SHigh Ctrl: the signal of high control (DMSO) • SLow Ctrl: the signal of low control (positive control Wee1 inhibitor at saturating concentration)

T1 sequence (P30291 299-569 limits assumed): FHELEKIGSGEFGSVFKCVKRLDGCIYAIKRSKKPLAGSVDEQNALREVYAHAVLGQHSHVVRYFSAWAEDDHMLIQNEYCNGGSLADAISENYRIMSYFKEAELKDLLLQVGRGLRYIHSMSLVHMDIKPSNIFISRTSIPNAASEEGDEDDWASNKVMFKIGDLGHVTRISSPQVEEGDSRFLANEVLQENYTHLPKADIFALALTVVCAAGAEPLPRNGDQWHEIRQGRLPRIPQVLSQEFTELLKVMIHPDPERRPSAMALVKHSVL

Row | Compound | IC50 [nM]
1 | C[C@H]1COC(=O)N1c1cccc(N2c3nc(Nc4ccc(N5CCCN(C)CC5)cc4)ncc3[C@]3(C)COC(C)(C)C[C@H]23)n1 (single isomer, unassigned) [Example 298] | 10 to 100
2 | C[C@H]1COC(=O)N1c1cccc(N2c3nc(Nc4ccc(N5C[C@H]6C[C@@H](C5)N6C)cc4)ncc3[C@]3(C)COC(C)(C)C[C@H]23)n1 (single isomer, unassigned) [Example 353] | 10 to 100
3 | CNCc1cccc(N2c3nc(Nc4ccc(C(C)(C)C)cc4)ncc3[C@]3(C)COC(C)(C)C[C@H]23)n1 (single isomer, unassigned) [Example 74] | 10 to 100
4 | CNCc1cccc(N2c3nc(Nc4ccc(C(=O)N5CCOCC5)cc4)ncc3[C@]3(C)COC(C)(C)C[C@H]23)n1 (single isomer, unassigned) [Example 23] | 100 to 1000
5 | C[C@H]1COC(=O)N1c1cccc(N2c3nc(Nc4ccc(O[C@H]5CCNC5)cc4)ncc3[C@]3(C)COC(C)(C)C[C@H]23)n1 (single isomer, unassigned) [Example 328] | 100 to 1000

same assay, conditions: class symbols; 1 nM Wee1 enzyme, 15 uM ATP, 4 hours at 25° C.

Row | Compound | IC50 [nM]
6 | Cc1cc(Nc2ncc3c(n2)N(c2cccc(N4CCOC4=O)n2)[C@H]2CC(C)(C)OC[C@@]32C)ccc1N1C[C@@H]2C[C@H]1CN2C [Example 655, 3-(6-((4bS,8aS)-4b,7,7-trimethyl-2-((3-methyl-4-((1S,4S)-5-methyl-2,5-diazabicyclo[2.2.1]heptan-2-yl)phenyl)amino)-4b,7,8,8a-tetrahydropyrano[3′,4′:4,5]pyrrolo[2,3-d]pyrimidin-9(5H)-yl)pyridin-2-yl)oxazolidin-2-one] | 10 to 100
7 | CC1(C)C[C@@H]2N(c3cccc([C@H]4CCCN4)n3)c3nc(Nc4ccc(N5CCOCC5)cc4)ncc3[C@]2(C)CO1 (single isomer, unassigned) [Example 527] | 10 to 100
8 | CN1C[C@@H]2C[C@H]1CN2c1ccc(Nc2ncc3c(n2)N(c2cccc(N4CCCC4=O)n2)[C@H]2CC(C)(C)OC[C@@]32C)cc1 [Example 628, 1-(6-((4bS,8aS)-4b,7,7-trimethyl-2-((4-((1S,4S)-5-methyl-2,5-diazabicyclo[2.2.1]heptan-2-yl)phenyl)amino)-4b,7,8,8a-tetrahydropyrano[3′,4′:4,5]pyrrolo[2,3-d]pyrimidin-9(5H)-yl)pyridin-2-yl)pyrrolidin-2-one] | 100 to 1000
9 | CN1CC2(C1)CN(c1ccc(Nc3ncc4c(n3)N(c3cccc(N5CCOC5=O)n3)[C@H]3CC(C)(C)OC[C@@]43C)cc1)C2 [Example 708, 3-(6-((4bS,8aS)-4b,7,7-trimethyl-2-((4-(6-methyl-2,6-diazaspiro[3.3]heptan-2-yl)phenyl)amino)-4b,7,8,8a-tetrahydropyrano[3′,4′:4,5]pyrrolo[2,3-d]pyrimidin-9(5H)-yl)pyridin-2-yl)oxazolidin-2-one] | 10 to 100
10 | CC1(C)C[C@@H]2N(c3cccc(N4CCOC4=O)n3)c3nc(Nc4ccc([C@H]5CNC[C@H]5F)cc4)ncc3[C@]2(C)CO1 [Example 673, 3-(6-((4bS,8aS)-2-((4-((3S,4S)-4-fluoropyrrolidin-3-yl)phenyl)amino)-4b,7,7-trimethyl-4b,7,8,8a-tetrahydropyrano[3′,4′:4,5]pyrrolo[2,3-d]pyrimidin-9(5H)-yl)pyridin-2-yl)oxazolidin-2-one] | 10 to 100
11 | CNCc1ccnc(N2c3nc(Nc4ccc(N5CCOCC5)cc4)ncc3[C@@]3(C)COC(C)(C)C[C@@H]23)c1 (single isomer, unassigned) [Example 547] | 10 to 100
12 | CN1CC2(C1)CN(c1ccc(Nc3ncc4c(n3)N(c3cccc(N5CCCC5=O)n3)[C@H]3CC(C)(C)OC[C@@]43C)cc1)C2 [Example 691, 1-(6-((4bS,8aS)-4b,7,7-trimethyl-2-((4-(6-methyl-2,6-diazaspiro[3.3]heptan-2-yl)phenyl)amino)-4b,7,8,8a-tetrahydropyrano[3′,4′:4,5]pyrrolo[2,3-d]pyrimidin-9(5H)-yl)pyridin-2-yl)pyrrolidin-2-one] | 100 to 1000

From US20260166039A1 (SCHRÖDINGER, INC., priority 2022, published 2026)
